# Where two headings read alike, the source gives them in different places.
# Columns and labels:
# Format in all cases: cell-based
# [1] = tested on: E. coli 25922; assay: MIC broth microdilution, standard panel: E. coli 25922; conditions: Escherichia coli, standard panel of organisms
# Method: (§1) Bacterial isolates were cultivated from −70° C. frozen stocks by two consecutive overnight passages at 35° C. in ambient air on 5% blood agar (Remel, Lenexa, Kans.). Clinical isolates tested were from a collection composed of isolates collected during clinical trials and recent clinical isolates obtained from various geographically diverse hospitals in the US. Quality control and primary panel strains were from the American Type Culture Collection (ATCC; Rockville, Md.), with the exception of P. aeruginosa PAO200, a strain with a deletion of the mexABoprM genes that was received from Dr. H. Schweizer. […] Strain Z61 (ATCC 35151) is also hypersusceptible to antibacterials. It is thought that the hypersusceptibility of this strain is the result of increased permeability of its outer membrane (Angus B L et al, Antimicrobial Agents and Chemotherapy 1982 21,299-309: Outer membrane permeability in Pseudomonas aeruginosa: Comparison of a wild-type with an antibacterial-supersusceptible mutant).
# (§2) Minimum Inhibitory Concentrations (MICs) were determined by the broth microdilution method in accordance with the National Committee for Clinical Laboratory Standards (NCCLS) guidelines. In brief, organism suspensions were are adjusted to a 0.5 McFarland standard to yield a final inoculum between 3×10^5 and 7×10^5 colony-forming units (CFU)/mL. Drug dilutions and inocula were made in sterile, cation adjusted Mueller-Hinton Broth (Remel). An inoculum volume of 100 μl was added to wells containing 100 μl of broth with 2-fold serial dilutions of drug. All inoculated microdilution trays were incubated in ambient air at 35° C. for 18-24 hours. Following incubation, the lowest concentration of the drug that prevented visible growth was recorded as the MIC. Performance of the assay was monitored by the use of laboratory quality-control strains against tobramycin, that has a defined MIC spectrum, in accordance with NCCLS guidelines.
# [2] = tested on: Acinetobacter calcoaceticus; assay: MIC vs non-fermenting organisms: Acinetobacter calcoaceticus; conditions: Acinet. calc., MIC key class
# Method: (§3) Bacterial isolates were cultivated from −70° C. frozen stocks by two consecutive overnight passages at 35° C. in ambient air on 5% blood agar (Remel, Lenexa, Kans.). Clinical isolates tested were from a collection composed of isolates collected during clinical trials and recent clinical isolates obtained from various geographically diverse hospitals in the US. Quality control and primary panel strains were from the American Type Culture Collection (ATCC; Rockville, Md.), with the exception of P. aeruginosa PAO200, a strain with a deletion of the mexABoprM genes that was received from Dr. H. Schweizer.
# as §2, with “MIC.” for “MIC. Performance of the assay was monitored by the use of laboratory quality-control strains against tobramycin, that has a defined MIC spectrum, in accordance with NCCLS guidelines.”
# [3] = tested on: Pseudomonas aeruginosa cystic fibrosis isolate 3224; assay: MIC vs cystic fibrosis isolate of P. aeruginosa 3224; conditions: strain 3224, Tobra R, LpxC inhibitors, MIC key class
# Method: as §3
# as §2, with “MIC.” for “MIC. Performance of the assay was monitored by the use of laboratory quality-control strains against tobramycin, that has a defined MIC spectrum, in accordance with NCCLS guidelines.”
# [4] = tested on: P. aeruginosa PAO200 mexAB; assay: MIC broth microdilution, standard panel: P. aeruginosa PAO200 mexAB; conditions: Pseudomonas aeruginosa, PAO200MEXAB, read-out: MIC P. aeruginosa PAO200 mexAB
# Method: as §1, §2
# [5] = tested on: Escherichia coli; assay: MIC vs enteric organisms: Escherichia coli clinical isolates; conditions: Escherichia coli, MIC key class, read-out: MIC
# Method: as §3
# as §2, with “MIC.” for “MIC. Performance of the assay was monitored by the use of laboratory quality-control strains against tobramycin, that has a defined MIC spectrum, in accordance with NCCLS guidelines.”
# [6] = tested on: Enterobacter cloacae; assay: MIC vs enteric organisms: Enterobacter cloacae; conditions: E. clo., MIC key class
# Method: as §3
# as §2, with “MIC.” for “MIC. Performance of the assay was monitored by the use of laboratory quality-control strains against tobramycin, that has a defined MIC spectrum, in accordance with NCCLS guidelines.”
# [7] = tested on: Pseudomonas aeruginosa cystic fibrosis isolate 2196; assay: MIC vs cystic fibrosis isolate of P. aeruginosa 2196 (resistant to ciprofloxacin); conditions: strain 2196, Cipro R, LpxC inhibitors, MIC key class
# Method: as §3
# as §2, with “MIC.” for “MIC. Performance of the assay was monitored by the use of laboratory quality-control strains against tobramycin, that has a defined MIC spectrum, in accordance with NCCLS guidelines.”
# [8] = tested on: Serratia marcescens; assay: MIC vs enteric organisms: Serratia marcescens; conditions: S. marc., MIC key class
# Method: as §3
# as §2, with “MIC.” for “MIC. Performance of the assay was monitored by the use of laboratory quality-control strains against tobramycin, that has a defined MIC spectrum, in accordance with NCCLS guidelines.”
# [9] = tested on: P. aeruginosa 27853; assay: MIC broth microdilution, standard panel: P. aeruginosa 27853; conditions: Pseudomonas aeruginosa, standard panel of organisms
# Method: as §1, §2
# [10] = tested on: S. aureus 29213; assay: MIC broth microdilution, standard panel: S. aureus 29213; conditions: Staphylococcus aureus, standard panel of organisms
# Method: as §1, §2
# [11] = tested on: Pseudomonas aeruginosa cystic fibrosis isolate 3198; assay: MIC vs cystic fibrosis isolate of P. aeruginosa 3198 (sensitive to most antibacterials); conditions: strain 3198, Sensitive, LpxC inhibitors, MIC key class
# Method: as §3
# as §2, with “MIC.” for “MIC. Performance of the assay was monitored by the use of laboratory quality-control strains against tobramycin, that has a defined MIC spectrum, in accordance with NCCLS guidelines.”
# [12] = tested on: Enterobacter aerogenes; assay: MIC vs enteric organisms: Enterobacter aerogenes; conditions: Klebsiella aerogenes; E. aer.; MIC key class
# Method: as §3
# as §2, with “MIC.” for “MIC. Performance of the assay was monitored by the use of laboratory quality-control strains against tobramycin, that has a defined MIC spectrum, in accordance with NCCLS guidelines.”
# [13] = tested on: Pseudomonas aeruginosa cystic fibrosis isolate 3236; assay: MIC vs cystic fibrosis isolate of P. aeruginosa 3236 (sensitive to most antibacterials); conditions: strain 3236, Sensitive, LpxC inhibitors, MIC key class
# Method: as §3
# as §2, with “MIC.” for “MIC. Performance of the assay was monitored by the use of laboratory quality-control strains against tobramycin, that has a defined MIC spectrum, in accordance with NCCLS guidelines.”
# [14] = tested on: Proteus mirabilis; assay: MIC vs enteric organisms: Proteus mirabilis; conditions: P. mir., MIC key class
# Method: as §3
# as §2, with “MIC.” for “MIC. Performance of the assay was monitored by the use of laboratory quality-control strains against tobramycin, that has a defined MIC spectrum, in accordance with NCCLS guidelines.”
# [15] = tested on: non-CF clinical isolates of P. aeruginosa; assay: MIC vs non-CF clinical isolates of P. aeruginosa; conditions: Pseudomonas aeruginosa, MIC key class
# Method: as §1, §2
# [16] = tested on: Klebsiella pneumoniae; assay: MIC vs enteric organisms: Klebsiella pneumoniae; conditions: K. pneu., MIC key class
# Method: as §3
# as §2, with “MIC.” for “MIC. Performance of the assay was monitored by the use of laboratory quality-control strains against tobramycin, that has a defined MIC spectrum, in accordance with NCCLS guidelines.”
# [17] = tested on: Pseudomonas aeruginosa cystic fibrosis isolate 3317; assay: MIC vs cystic fibrosis isolate of P. aeruginosa 3317 (resistant to aztreonam); conditions: strain 3317, Aztr. R, LpxC inhibitors, MIC key class
# Method: as §3
# as §2, with “MIC.” for “MIC. Performance of the assay was monitored by the use of laboratory quality-control strains against tobramycin, that has a defined MIC spectrum, in accordance with NCCLS guidelines.”
# [18] = tested on: Alcaligenes xylosoxidans; assay: MIC vs non-fermenting organisms: Alcaligenes xylosoxidans; conditions: Achromobacter xylosoxidans; Alcal. xyl; MIC key class
# Method: as §3
# as §2, with “MIC.” for “MIC. Performance of the assay was monitored by the use of laboratory quality-control strains against tobramycin, that has a defined MIC spectrum, in accordance with NCCLS guidelines.”
# [19] = tested on: Stenotrophomonas maltophilia; assay: MIC vs non-fermenting organisms: Stenotrophomonas maltophilia; conditions: Stenotrophomonas maltophilia, S. malt.; MIC key class; read-out: MIC
# Method: as §3
# as §2, with “MIC.” for “MIC. Performance of the assay was monitored by the use of laboratory quality-control strains against tobramycin, that has a defined MIC spectrum, in accordance with NCCLS guidelines.”
# [20] = tested on: Klebsiella oxytoca; assay: MIC vs enteric organisms: Klebsiella oxytoca; conditions: K. oxy., MIC key class
# Method: as §3
# as §2, with “MIC.” for “MIC. Performance of the assay was monitored by the use of laboratory quality-control strains against tobramycin, that has a defined MIC spectrum, in accordance with NCCLS guidelines.”
Structure (SMILES),MIC [1] [µg/mL],MIC [2] [µg/mL],MIC [3] [µg/mL],MIC [4] [µg/mL],MIC ([5]; E. coli 1619) [µg/mL],MIC ([5]; E. coli 2788) [µg/mL],MIC [6] [µg/mL],MIC [7] [µg/mL],MIC [8] [µg/mL],MIC [9] [µg/mL],MIC [10] [µg/mL],MIC [11] [µg/mL],MIC [12] [µg/mL],MIC [13] [µg/mL],MIC [14] [µg/mL],MIC ([15]; P. aer 27853) [µg/mL],MIC ([15]; P. aer psa-6b) [µg/mL],MIC [16] [µg/mL],MIC [17] [µg/mL],MIC [18] [µg/mL],other results
C[C@@H](N)[C@H](NC(=O)c1ccc(C#Cc2ccccc2)cc1)C(=O)NO [Example 13],< 6.25,> 50,< 6.25,< 6.25,< 6.25,< 6.25,< 6.25,< 6.25,< 6.25,< 6.25,> 50,< 6.25,> 50,< 6.25,< 6.25,< 6.25,< 6.25,< 6.25,< 6.25,< 6.25,"MIC ([15]; PAO1, P. aer. PAO1): < 6.25 µg/mL; MIC [19]: 6.25 to 50 µg/mL; MIC [20]: < 6.25 µg/mL"
"NC[C@H](NC(=O)c1ccc(C#Cc2ccc(NC(=O)CNC3CC3)cc2)cc1)C(=O)NO [Example 516, N-[(1S)-1-(aminomethyl)-2-(hydroxyamino)-2-oxoethyl]-4-[(4-{[(cyclopropylamino)acetyl]amino}phenyl)ethynyl]benzamide]",< 6.25,> 50,< 6.25,< 6.25,< 6.25,6.25 to 50,6.25 to 50,< 6.25,< 6.25,< 6.25,> 50,< 6.25,> 50,< 6.25,> 50,< 6.25,< 6.25,> 50,< 6.25,> 50,MIC ([15]; P. aer 12307): < 6.25 µg/mL; MIC [19]: > 50 µg/mL; MIC [20]: > 50 µg/mL
"CCc1ccc(-c2ccc(C(=O)N[C@@H](CN)C(=O)NO)cc2)cc1 [Example 280, N-[(1S)-1-(aminomethyl)-2-(hydroxyamino)-2-oxoethyl]-4′-ethyl-1,1-biphenyl-4-carboxamide]",< 6.25,> 50,< 6.25,< 6.25,< 6.25,< 6.25,< 6.25,6.25 to 50,6.25 to 50,< 6.25,> 50,< 6.25,> 50,< 6.25,6.25 to 50,< 6.25,< 6.25,6.25 to 50,< 6.25,6.25 to 50,"MIC ([15]; P. aer 12307): < 6.25 µg/mL; MIC ([15]; PAO1, P. aer. PAO1): < 6.25 µg/mL; MIC [19]: 6.25 to 50 µg/mL; MIC [20]: > 50 µg/mL"
"C[C@@H](O)[C@H](NC(=O)c1ccc(C#CC#Cc2ccccc2)cc1)C(=O)NO [Example 19, N-(1-(N-hydroxycarbamoyl)(1S,2R)-2-hydroxypropyl)[4-(4-phenylbuta-1,3-diynyl)phenyl]carboxamide]",< 6.25,< 6.25,< 6.25,< 6.25,< 6.25,< 6.25,< 6.25,< 6.25,< 6.25,< 6.25,6.25 to 50,< 6.25,< 6.25,< 6.25,< 6.25,< 6.25,< 6.25,< 6.25,< 6.25,6.25 to 50,"MIC ([15]; P. aer 12307): < 6.25 µg/mL; MIC ([15]; PAO1, P. aer. PAO1): < 6.25 µg/mL; MIC [19]: 6.25 to 50 µg/mL; MIC [20]: < 6.25 µg/mL"
"NC[C@H](NC(=O)c1ccc(C#CC#Cc2ccccc2)cc1)C(=O)NO [Example 481, N-[(1S)-1-(aminomethyl)-2-(hydroxyamino)-2-oxoethyl]-4-(4-phenylbuta-1,3-diynyl)benzamide]",< 6.25,> 50,< 6.25,< 6.25,< 6.25,< 6.25,< 6.25,< 6.25,< 6.25,< 6.25,> 50,< 6.25,> 50,< 6.25,< 6.25,< 6.25,< 6.25,< 6.25,< 6.25,> 50,"MIC ([15]; P. aer 12307): < 6.25 µg/mL; MIC ([15]; PAO1, P. aer. PAO1): < 6.25 µg/mL; MIC [19]: > 50 µg/mL; MIC [20]: < 6.25 µg/mL"
